Results published in US11976083B2, “Inhibitors of peptidylarginine deiminases” (Gilead Sciences, Inc., priority 2020, dated 2024).

These compounds were tested against T1, human PAD4 (Homo sapiens, UniProt Q9UM07) (assay: In vitro PAD4 BAEE biochemical assay). Settings: BAEE substrate 3 mM, 5 nM PAD4, 2 mM calcium chloride; geometric mean of multiple experiments.
T1 construct: human PAD4 (NM_012387), A2-P663, was PCR amplified; His-SUMO (N, cleaved yes); made in house; host or cells: E. coli BL21(DE3)
Outline: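 Ammonia produced by BAEE deimination (3 mM substrate, 2 h, 25 °C) was read as fluorescent isoindole after o-phthalaldehyde/DTT derivatization, ex 405 nm/em 535 nm. Human PAD4 at 5 nM final, 2 mM calcium, pH 7.6 MOPS; compound preincubated 30 min. IC50s, normalized to BB-Cl-Amidine and DMSO controls, were geometric-mean averaged.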

T1 sequence (Q9UM07 2-663): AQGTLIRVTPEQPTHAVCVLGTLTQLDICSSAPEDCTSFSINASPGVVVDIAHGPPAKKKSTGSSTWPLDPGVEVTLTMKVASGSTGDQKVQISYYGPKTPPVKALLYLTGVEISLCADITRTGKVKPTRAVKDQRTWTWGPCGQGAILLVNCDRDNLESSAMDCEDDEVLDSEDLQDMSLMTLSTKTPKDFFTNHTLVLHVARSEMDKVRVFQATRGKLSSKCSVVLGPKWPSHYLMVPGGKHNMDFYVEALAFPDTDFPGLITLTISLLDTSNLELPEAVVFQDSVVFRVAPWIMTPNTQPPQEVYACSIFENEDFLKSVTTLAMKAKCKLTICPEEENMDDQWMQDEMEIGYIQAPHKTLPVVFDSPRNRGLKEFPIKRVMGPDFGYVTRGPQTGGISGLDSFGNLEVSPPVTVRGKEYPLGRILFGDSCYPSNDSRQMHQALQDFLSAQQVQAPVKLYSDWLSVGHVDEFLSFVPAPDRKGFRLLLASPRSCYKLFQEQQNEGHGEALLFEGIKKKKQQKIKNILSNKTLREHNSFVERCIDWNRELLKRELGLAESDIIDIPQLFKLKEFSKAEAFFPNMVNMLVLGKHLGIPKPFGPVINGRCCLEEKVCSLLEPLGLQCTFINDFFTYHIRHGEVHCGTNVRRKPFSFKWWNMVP

Structure (SMILES) | IC50
COc1cc(C(=O)N2CCC[C@@H](N)C2)cc2nc(-c3cc4ccc5nc4n3CCCCCc3ccccc3C(=O)N[C@@H]5C)n(C)c12 [Example 28, (2~{R})-17-[5-[(3~{R})-3-aminopiperidine-1-carbonyl]-7-methoxy-1-methyl-benzimidazol-2-yl]-2-methyl-3,16,22-triazatetracyclo[14.5.2.0^{5,10}.0^{19,23}] tricosa-1(22),5,7,9,17,19(23),20-heptaen-4-one] | 46 nM
C[C@H]1NC(=O)[C@@H]2C[C@H]2CCCCCn2c(-c3nc4cc(C(=O)N[C@H]5CNCC[C@@H]5F)cnc4n3C)cc3ccc1nc32 [Example 188, ˜{N}-[(3˜{S},4˜{S})-4-fluoro-3-piperidyl]-3-methyl-2-[(2˜{R},5˜{R},7˜{R})-2-methyl-4-oxo-3,13,19-triazatetracyclo[11.5.2.0^{5,7}.0^{16,20}]icosa-1(19),14,16(20),17-tetraen-14-yl]imidazo[4,5-b]pyridine-6-carboxamide] | 49 nM
COc1cc(C(=O)N2CC[C@H]3CCN[C@H]3C2)cc2nc(-c3cc4ccc5nc4n3CCCCCCC(C)(C)C(=O)N[C@@H]5C)n(C)c12 [Example 79, (11~{R})-17-[5-[(3~{a}~{R},7~{a}~{R})-1,2,3,3~{a},4,5,7,7~{a}-octahydropyrrolo[2,3-c]pyridine-6-carbonyl]-7-methoxy-1-methyl-benzimidazol-2-yl]-8,8,11-trimethyl-1,10,19-triazatricyclo[10.5.2.0^{15,18}]nonadeca-12(19),13,15(18),16-tetraen-9-one] | 76 nM
COc1cc(C(=O)N2CCC[C@@H](N)C2)cc2nc(-c3cc4ccc5nc4n3CCCCCCNc3ncccc3-5)n(C)c12 [Example 50, [(3~{R})-3-amino-1-piperidyl]-[7-methoxy-1-methyl-2-(6,8,15,21-tetrazatetracyclo[13.5.2.0^{2,7}.0^{18,22}]docosa-1(21),2,4,6,16,18(22),19-heptaen-16-yl)benzimidazol-5-yl]methanone] | 10000 nM
COc1cc(C(=O)N2CCC[C@@H](N)C2)cc2nc(-c3cc4ccc5nc4n3CCCCCC[C@](C)(C(F)(F)F)C(=O)N[C@@H]5C)n(C)c12 [Example 4, (8~{S},11~{R})-17-[5-[(3~{R})-3-aminopiperidine-1-carbonyl]-7-methoxy-1-methyl-benzimidazol-2-yl]-8,11-dimethyl-8-(trifluoromethyl)-1,10,19-triazatricyclo[10.5.2.0^{15,18}]nonadeca-12(19),13,15(18),16-tetraen-9-one] | 69 nM
COc1cc(C(=O)N2[C@H]3CC[C@@H]2[C@H](N)C3)cc2nc(-c3cc4ccc5nc4n3CCCCC[C@@H](OC)C(C)(C)C(=O)N[C@@H]5C)n(C)c12 [Example 219, (7~{R},11~{R})-17-[5-[(1~{R},2~{R},4~{S})-2-amino-7-azabicyclo[2.2.1]heptane-7-carbonyl]-7-methoxy-1-methyl-benzimidazol-2-yl]-7-methoxy-8,8,11-trimethyl-1,10,19-triazatricyclo[10.5.2.0^{15,18}]nonadeca-12(19),13,15(18),16-tetraen-9-one] | 72 nM
COc1cc(C(=O)N[C@H]2CNCC(F)(F)C2)cc2nc(-c3cc4ccc5nc4n3CCCCCCC(C)(C)C(=O)N[C@@H]5C)n(C)c12 [Example 63, ~{N}-[(3~{R})-5,5-difluoro-3-piperidyl]-7-methoxy-1-methyl-2-[(11~{R})-8,8,11-trimethyl-9-oxo-1,10,19-triazatricyclo[10.5.2.0^{15,18}]nonadeca-12(19),13,15(18),16-tetraen-17-yl]benzimidazole-5-carboxamide] | 25000 nM
COc1cc(C(=O)N2CCC[C@@H](N)C2)cc2nc(-c3cc4ccc5nc4n3CCCCCc3cnn(C)c3C(=O)N[C@@H]5C)n(C)c12 [Example 172, (2~{R})-16-[5-[(3~{R})-3-aminopiperidine-1-carbonyl]-7-methoxy-1-methyl-benzimidazol-2-yl]-2,6-dimethyl-3,6,7,15,21-pentazatetracyclo[13.5.2.0^{5,9}.0^{18,22}] docosa-1(21),5(9),7,16,18(22),19-hexaen-4-one] | 101 nM

The remaining lines, values ahead:

IC50 | Structure (SMILES)
82 nM | COc1cc(C(=O)N2CCC[C@@H](N)C2)cc2nc(-c3cc4ccc5cc4n3CCCOC[C@H]3C[C@H]3C(=O)N[C@@H]5C)n(C)c12 [Example 307, (2~{R},5~{R},7~{S})-14-[5-[(3~{R})-3-aminopiperidine-1-carbonyl]-7-methoxy-1-methyl-benzimidazol-2-yl]-2-methyl-9-oxa-3,13-diazatetracyclo[11.5.2.0^{5,7}.0^{16,20}] icosa-1(19),14,16(20),17-tetraen-4-one]
39 nM | COc1cc(C(=O)N2C[C@H](N)[C@@H]3CC[C@H]2C3)cc2nc(-c3cc4ccc5nc4n3CCCCCc3nc(Cl)ccc3C(=O)N[C@@H]5C)n(C3CC3)c12 [Example 809, (2˜{R})-17-[5-[(1˜{S},4˜{R},5˜{R})-4-amino-2-azabicyclo[3.2.1]octane-2-carbonyl]-1-cyclopropyl-7-methoxy-benzimidazol-2-yl]-8-chloro-2-methyl-3,9,16,22-tetrazatetracyclo[14.5.2.0^{5,10}.0^{19,23}]tricosa-1(21),5(10),6,8,17,19,22-heptaen-4-one]
23 nM | C[C@H]1NC(=O)[C@@H]2C[C@H]2CCCCCn2c(-c3nc4cc(C(=O)N[C@H]5CNCC[C@@H]5F)cnc4n3C3CC3)cc3ccc1nc32 [Example 573, 3-cyclopropyl-~{N}-[(3~ {S},4~{S})-4-fluoro-3-piperidyl]-2-[(2~{R},5~ {R},7~{R})-2-methyl-4-oxo-3,13,19-triazatetracyclo [11.5.2.0^{5,7}.0^{16,20}]icosa-1(19),14,16(20), 17-tetraen-14-yl]imidazo [4,5-b]pyridine-6-carboxamide]
13 nM | COc1ccc2c(n1)CCCCCn1c(-c3nc4cc(C(=O)N5C[C@H](N)[C@@H]6CC[C@H]5C6)cc(F)c4n3C3CC3)cc3ccc(nc31)[C@@H](C)NC2=O [Example 685, (2~{R})-17-[5-[(1~{S},4~{R}, 5~{R})-4-amino-2-azabicyclo[3.2.1]octane-2-carbonyl]-1-cyclopropyl-7-fluoro-benzimidazol-2-yl]-8-methoxy-2-methyl-3,9,16,22-tetrazatetracyclo [14.5.2.0^{5,10}.0^{19, 23}]tricosa-1(22),5(10), 6,8,17,19(23),20-heptaen-4-one]
175 nM | C[C@H]1NC(=O)[C@H]2C[C@@H]2CCCCCn2c(-c3nc4cc(C(=O)N[C@H]5CNCC[C@@H]5F)c(F)cc4n3C3CC3)cc3ccc1nc32 [Example 539, 1-cyclopropyl-6-fluoro-~{N}-[(3~{S},4~{S})-4-fluoro-3-piperidyl]-2-[(2~{R},5~{S},7~ {S})-2-methyl-4-oxo-3,13,19-triazatetracyclo [11.5.2.0^{5,7}.0^{16,20}]icosa-1(19),14,16 (20),17-tetraen-14-yl]benzimidazole-5-carboxamide]
145 nM | COc1cc(C(=O)N2CC[C@@H](OC)[C@@H](N)C2)cc2nc(-c3cc4ccc5nc4n3CC(F)(F)CCCOC3(CC3)C(=O)N[C@@H]5C)n(C)c12 [Example 589, (11~{R})-17-[5-[(3~{S},4~ {R})-3-amino-4-methoxy-piperidine-1-carbonyl]-7-methoxy-1-methyl-benzimidazol-2-yl]-3,3-difluoro-11-methyl-spiro[7-oxa-1,10,19-triazatricyclo[10.5.2.0^ {15,18}]nonadeca-12(19), 13,15(18),16-tetraene-8,1′-cyclopropane]-9-one]
44 nM | C[C@H]1NC(=O)C2(CCCCCCn3c(-c4nc5cc(C(=O)N[C@H]6CNCC[C@@H]6F)c(F)cc5n4C4CC4)cc4ccc1nc43)COC2 [Example 603, 1-cyclopropyl-6-fluoro-~ {N}-[(3~{S},4~{S})-4-fluoro-3-piperidyl]-2-[(11~{R})-11-methyl-9-oxo-spiro[1,10,19-triazatricyclo [10.5.2.0^{15,18}]nonadeca-12,14,16,18-tetraene-8,3′-oxetane]-17-yl] benzimidazole-5-carboxamide]
42 nM | CO[C@@H]1CCN(C(=O)c2ccc3c(c2)nc(-c2cc4ccc5nc4n2CCCCCc2cc(Cl)ncc2C(=O)N[C@@H]5C)n3C2CC2)C[C@@H]1N [Example 652, 17-[5-[(3~{S},4~{R})-3-amino-4-methoxy-piperidine-1-carbonyl]-1-cyclopropyl-benzimidazol-2-yl]-8-chloro-2-methyl-3,7,16,22-tetrazatetracyclo[14.5.2.0^ {5,10}.0^{19,23}] tricosa-1(22),5,7,9,17,19(23), 20-heptaen-4-one]
221 nM | COc1cc(C(=O)N2C[C@H]3CC[C@@H]2[C@@H]3N)cc2nc(-c3cc4ccc5nc4n3CCCCCCCCCC(=O)N[C@@H]5C)c(C)n12 [Example 290, (13~{R})-19-[7-[(1~{R},4~{R},7~{R})-7-amino-2-azabicyclo[2.2.1]heptane-2-carbonyl]-5-methoxy-3-methyl-imidazo[1,2-a]pyridin-2-yl]-13-methyl-1,12,21-triazatricyclo[12.5.2.0^{17,20}]henicosa-14(21),15,17(20),18-tetraen-11-one]
37 nM | C[C@H]1NC(=O)[C@@H]2C[C@H]2CCCC(F)(F)Cn2c(-c3nc4cc(C(=O)N[C@H]5CNCC[C@@H]5F)c(F)cc4n3C)cc3ccc1nc32 [Example 595, 2-[(2~{R},5~{R},7~ {R})-11,11-difluoro-2-methyl-4-oxo-3,13,19-triazatetracyclo[11.5.2.0^ {5,7}.0^{16,20}]icosa-1(19),14,16(20),17-tetraen-14-yl]-6-fluoro-~ {N}-[(3~{S},4~{S})-4-fluoro-3-piperidyl]-1-methyl-benzimidazole-5-carboxamide]
